The values that follow are results of earlier work, collected in patent US8088935B2, “Compounds and methods for the treatment of asthma” (Ironwood Pharmaceuticals, Inc., priority 2003, dated 2012).

The conditions of data set [1]: toxicity studies.

Some results are limits rather than exact numbers.

As to `O=C(O)c1cc(=O)c2c(OCC(O)COc3cccc4oc(C(=O)O)cc(=O)c34)cccc2o1` [Cromolyn, disodium cromoglycate], for the setting “in vivo”, the biologic half-life is 46-99 minutes. For the same compound, for the setting “inhaled”, the “Peak plasma levels occur (time)” value is at most 15 min. In data set [1], the acute toxicity result was “impressively low order of acute toxicity”.
